In patent US10471154B2, “Spirocyclic indolone polyethylene glycol carbonate compound, composition, preparation method and use thereof” (priority 2016, dated 2019):
Converted amounts (≈) assume the structure as drawn. Marks after values point to notes of the source that are not given here.

Experiments:
SJSA-1 xenografted tumor = assay: Inhibitory effect on the growth of SJSA-1 xenografted tumor in nude mice; type: in vivo; settings: for Tumor volumes X ± SD (mm^3), End: End (21 days after inoculation), doxorubicin 3.0 mg/kg i.p. x6, rac-SIP 30.0 mg/kg gavage x9, SIP-PEG compounds 30.0 mg/kg i.p. x9, rac-SIP-MPEG-2000 50.0 mg/kg i.p. x9; for Tumor volumes X ± SD (mm^3), Start: Start of administration (8 days after inoculation); for Weights of Tumor X ± SD: tumor peeled off 21 days after inoculation; for Weights of Tumor X ± SD / Inhibition rate (%) on the basis of tumor volume / Inhibition rate (%) on the basis of tumor weight: doses and routes as in E5; for Inhibition rate (%) on the basis of tumor volume / Inhibition rate (%) on the basis of tumor weight: vs saline control; for Inhibition rate (%) on the basis of tumor volume: End; for inhibitory effect on tumor growth compared with PEG-free rac-SIP given by gastrointestinal administration: administered by injection, 30.0 mg/kg (rac-SIP-MPEG-2000 50.0 mg/kg)
Description: 72 Female Balb/c/nu nude mice (weighting 15-19 g) were provided by Beijing Huafukang BioScience Co., Inc. Certificate No.: SOCK (Beijing) 2014-0004.
(§1) Doxorubicin: prepared in sterile physiological saline at a concentration of 0.3 mg/ml; the administration dosage was 3.0 mg/kg; and the administration volume was 10 ml/kg.
(§2) rac-SIP: prepared in a solvent consisting of 4% DMA, 30% PEG400, and 66% (by volume) sterile distilled water to a solution with a concentration of 1.5 mg/ml; the administration dosage was 30.0 mg/kg, and the administration volume was 20 ml/kg.
(§3) rac-SIP-PEG-2: prepared in a solvent consisting of polyoxyethylene castor oil:95% ethanol:sterile physiological saline (1.5:1.5:7 by volume) to drug solutions with concentrations of 1.5 mg/ml and 3.0 mg/ml. The administration dosages were 15.0 mg/kg and 30.0 mg/kg. The administration volume was 10 ml/kg.
(§4) rac-SIP-PEG-3: prepared in sterile physiological saline to a solution with a concentration of 3.0 mg/ml. The administration dose was 30.0 mg/kg. The administration volume was 10 ml/kg.
(§5) chiral-R-SIP-PEG-3: prepared in sterile physiological saline to a solution with a concentration of 3.0 mg/ml. The administration dose was 30.0 mg/kg. The administration volume was 10 ml/kg.
(§6) rac-SIP-PEG-7: prepared in sterile physiological saline to a solution with a concentration of 3.0 mg/ml. The administration dose was 30.0 mg/kg. The administration volume was 10 ml/kg.
(§7) The administration dose was 50.0 mg/kg. The administration volume was 10 ml/kg.
Doxorubicin: at a dose of 3.0 mg/kg, administered intraperitoneally, once every other day, for a total of 6 times.
rac-SIP: at a dose of 30.0 mg/kg, administered by gavage, once a day, 6 times a week, for a total of 9 times.
rac-SIP-PEG-2: at a dose of 30.0 mg/kg, administered intraperitoneally, once a day, 6 times a week, for a total of 9 times.
rac-SIP-PEG-3: at a dose of 30.0 mg/kg, administered intraperitoneally, once a day, 6 times a week, for a total of 9 times.
chiral-R-SIP-PEG-3: at a dose of 30.0 mg/kg, administered intraperitoneally, once a day, 6 times a week, for a total of 9 times.
rac-SIP-PEG-7: at a dose of 30.0 mg/kg, administered intraperitoneally, once a day, 6 times a week, for a total of 9 times.
(§8) Tumor cells (SJSA-1) were harvested under aseptic conditions, and were adjusted to a cell density of 1×10^7 cells/ml with sterile physiological saline. 0.2 ml was inoculated under the skin of the axilla of nude mice, and the tumor was grown to have a diameter of 1 cm. The tumor was removed under aseptic conditions and cut into tumor masses with a size of 2.0 mm×2.0 mm, and evenly inoculated under the skin of the axilla of the nude mice. When the tumor volume reached about 250 mm^3 (8 days after inoculation), the animals were administered in groups with 9 mice in each group, and the animals with poor tumor growth were excluded. The control group used physiological saline as a control. […] Body weight was weighted 3 times a week, and the length a and the width b of the tumor were measured with a vernier caliper, and the volume of the tumor was calculated according to the formula V=a×b^2/2, where a is the length of the tumor and b is the width of the tumor. 21 Days after the inoculation, the nude mice were dislocated and photographed, and then the tumor was peeled off, weighed and photographed. RTV (relative tumor volume) and tumor inhibition rate were calculated. At the same time, the peripheral blood of nude mice was taken to count blood cells.
(§9) The data were processed by EXCEL software and expressed by Mean±SD, and the inter-group analysis was statistically processed using t test.

[1] = Body weights of SJSA-1 implanted nude mice (side effects); type: in vivo; settings: for Body Weights X ± SD (g), End: End (21 days after inoculation), doxorubicin 3.0 mg/kg i.p. x6, rac-SIP 30.0 mg/kg gavage x9, SIP-PEG compounds 30.0 mg/kg i.p. x9, rac-SIP-MPEG-2000 50.0 mg/kg i.p. x9; for body weight decreased, compared with the solvent control group: SIP-PEG compounds 30.0 mg/kg i.p. (MPEG-2000 50.0 mg/kg), SIP oral 30.0 mg/kg; for Body Weights X ± SD (g), Start: Start of administration, dose per group 3.0/30.0/50.0 mg/kg as in Table 1
Description: as §8, §9

physchem = settings: 25 °C, water, thermodynamic from solid
[2] = Drug preparation: dissolving in physiological saline; type: physicochemical; settings: 3.0 mg/ml (Example 14: 5.0 mg/ml) in sterile physiological saline
Description: as §1, §2, §3, §4, §5, §6, §7

Row | Compound | Tumor volumes X ± SD (mm^3), End (SJSA-1 xenografted tumor) | Tumor volumes X ± SD (mm^3), Start (SJSA-1 xenografted tumor) [mm^3] | Weights of Tumor X ± SD (SJSA-1 xenografted tumor) [g] | Inhibition rate (%) on the basis of tumor volume (SJSA-1 xenografted tumor) [%] | Inhibition rate (%) on the basis of tumor weight (SJSA-1 xenografted tumor) [%] | Body Weights X ± SD (g), End [1] [g] | body weight decreased, compared with the solvent control group [1] | Body Weights X ± SD (g), Start [1] [g] | solubility at 24 h (physchem) [µg/mL] | inhibitory effect on tumor growth compared with PEG-free rac-SIP given by gastrointestinal administration (SJSA-1 xenografted tumor) | dissolving in physiological saline for administration [2] | Inhibition rate (%) on the basis of tumor volume (SJSA-1 xenografted tumor; listed as chiral-R-PEG-3) [%] | body weight increased, compared with the solvent control group ([1]; 30.0 mg/kg i.p.)
1 | COc1cc(C(N)=O)ccc1NC(=O)[C@@H]1N[C@@H](CC(C)(C)C)C2(C(=O)Nc3cc(Cl)ccc32)[C@H]1c1cccc(Cl)c1F (mixture of isomers) [rac-SIP, rac-spiroindolinone pyrrolidinecarboxamide, reference compound] | 1273.7 ± 506.9*** mm^3 | 249.4 ± 59.5 | 1.37 ± 0.55 | 54.89 | 49.69 | 14.1 ± 1.6 | about 18% | 17.1 ± 0.8 | < 100 | – | – | – | –
2 | COCCOCCOC(=O)OC(C)OC(=O)c1ccc(NC(=O)[C@@H]2N[C@@H](CC(C)(C)C)[C@@]3(C(=O)Nc4cc(Cl)ccc43)[C@H]2c2cccc(Cl)c2F)c(OC)c1 (mixture of isomers) [rac-SIP-PEG-2, Rac-9-oxo-2,5,8,10-tetraoxadodecan-11-yl-4-((2′S,3R,4′S,5′R)-6-chloro-4′-(3-chloro-2-fluorophenyl)-2′-neopentyl-2-oxospiro[indoline-3,3′-pyrrolidine]-5′-carboxamido)-3-methoxybenzoate] | 1260.8 ± 597.6*** mm^3 | 242.6 ± 49.9 | 1.35 ± 0.64 | 55.36 | 50.55 | 15.4 ± 1.0 | about 9.4% | 17.0 ± 1.1 | > 400 | slightly better inhibitory effect | – | – | –
3 | COCCOCCOCCOC(=O)OC(C)OC(=O)c1ccc(NC(=O)[C@@H]2N[C@@H](CC(C)(C)C)[C@@]3(C(=O)Nc4cc(Cl)ccc43)[C@H]2c2cccc(Cl)c2F)c(OC)c1 (mixture of isomers) [rac-SIP-PEG-3, Rac-12-oxo-2,5,8,11,13-pentaoxapentadecan-14-yl-4-((2′S,3R,4′S,5′R)-6-chloro-4′-(3-chloro-2-fluorophenyl)-2′-neopentyl-2-oxospiro[indoline-3,3′-pyrrolidine]-5′-carboxamido)-3-methoxybenzoate] | 260.1 ± 219.3*** mm^3 | 246.4 ± 23.6 | 0.20 ± 0.20 | 90.79 | 92.86 | 15.9 ± 1.8 | about 7.5% | 17.2 ± 0.7 | > 3000 | stronger inhibitory effect | could be directly dissolved in physiological saline | – | –
4 | COCCOCCOCCOCCOCCOCCOCCOC(=O)OC(C)OC(=O)c1ccc(NC(=O)[C@@H]2N[C@@H](CC(C)(C)C)[C@@]3(C(=O)Nc4cc(Cl)ccc43)[C@H]2c2cccc(Cl)c2F)c(OC)c1 (mixture of isomers) [rac-SIP-PEG-7, Rac-24-oxo-2,5,8,11,14,17,20,23,25-nonoxaheptacosan-26-yl-4-((2′S,3R,4′S,5′R)-6-chloro-4′-(3-chloro-2-fluorophenyl)-2′-neopentyl-2-oxospiro[indoline-3,3′-pyrrolidine]-5′-carboxamido)-3-methoxybenzoate] | 93.2 ± 65.2*** mm^3 | 247.6 ± 57.4 | 0.08 ± 0.14 | 96.38 | 97.06 | 16.1 ± 1.6 | about 6.4% | 17.1 ± 0.7 | 30000 (≈ 29.3 mM) | stronger inhibitory effect | could be directly dissolved in physiological saline | – | –
5 | COc1cc(C(=O)O)ccc1NC(=O)[C@@H]1N[C@@H](CC(C)(C)C)[C@@]2(C(=O)Nc3cc(Cl)ccc32)[C@H]1c1cccc(Cl)c1F (racemic) [rac-SIP-acid, rac-4-((2′S,3′R,4′S,5′R)-6-chloro-4′-(3-chloro-2-fluorophenyl)-2′-neopentyl-2-oxospiro[indoline-3,3′-pyrrolidine]-5′-carboxamido)-3-methoxybenzoic acid, reference compound] | – | – | – | – | – | – | – | – | < 100 | – | – | – | –
6 | COCCOCCOCCOC(=O)OC(C)OC(=O)c1ccc(NC(=O)[C@@H]2N[C@@H](CC(C)(C)C)[C@@]3(C(=O)Nc4cc(Cl)ccc43)[C@H]2c2cccc(Cl)c2F)c(OC)c1 (single isomer, unassigned) [chiral-R-SIP-PEG-3] | 59.4 ± 46.3*** mm^3 | 252.9 ± 68.3 | 0.06 ± 0.05 | 97.90 | 97.84 | 19.2 ± 1.2 | – | 17.3 ± 0.9 | > 8000 | stronger inhibitory effect | could be directly dissolved in physiological saline | 97.9 | about 11%
7 | COc1cccc2c1C(=O)c1c(O)c3c(c(O)c1C2=O)C[C@@](O)(C(=O)CO)C[C@@H]3O[C@H]1C[C@H](N)[C@H](O)[C@H](C)O1 [Doxorubicin ADM, Doxorubicin, reference compound] | 1401.1 ± 658.2*** mm^3 | 241.1 ± 46.6 | 1.41 ± 0.66 | 50.38 | 48.27 | 13.7 ± 0.7 | – | 17.4 ± 0.7 | – | – | – | – | –
8 | Rac-4-((2′S,3′R,4′S,5′R)-6-chloro-4′-(3-chloro-2-fluorophenyl)-2′-neopentyl-2-oxospiro[indoline-3,3′-pyrrolidine]-5′-carboxamido)-3-methoxybenzoic acid methoxy polyethylene glycol 2000 carbonate [rac-SIP-MPEG-2000] | 102.5 ± 58.5*** mm^3 | 251.3 ± 39.8 | 0.09 ± 0.09 | 96.02 | 96.70 | 16.3 ± 1.5 | about 5.2% | 17.4 ± 1.0 | – | stronger inhibitory effect | could be directly dissolved in physiological saline | – | –
